This is an account of results in patent US9403832B2, “Pyrazolo[1,5-a]pyrimidine-based compounds, compositions comprising them, and methods of their use” (Lexicon Pharmaceuticals, Inc., priority 2012, dated 2016).

SMILES strings stand for the structures. A value given as a limit tells only on which side of the number the result lay.

In assay [1] the target is T1, AAK1 (Homo sapiens, UniProt Q2M2I8).
T1 construct: NP_055726.2
Kind of assay: P81 filter plate assay. It counts as biochemical. The note with it: full-length human AAK1, Mu2 substrate, 33P-ATP. The procedure, abridged: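 Full-length human AAK1 (0.2 nM, 2×) was pre-incubated 10 min at RT with compounds (top concentration 96 μM in the dilution plate), then reacted 1 h at RT with full-length human Mu2 (0.2 μM, 2×), cold ATP (2 μM, 2×) and ³³P-ATP. Reactions were stopped with phosphoric acid and captured on P81 filters for scintillation counting.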

The target of assay [2] is T1, AAK1. Kind of assay: HEK281 cell-based assay (CBA). The note with it: HEK293F cells transfected with full length human AAK1 and AP2M1; phospho-mu2 Western blot; 3 hours incubation. On the procedure: HEK293F cells were cultured in media containing DMEM (Gibco, cat. #11965), 10% FBS (SAFC Biosciences, cat. #12103C), 1× GPS (glutamine, penicillin and streptomycin). On day one, cells were plated on a 10 cm dish so that they are ˜80% confluent at time of transfection. Roughly 12 million cells were in a 10 cm dish at time of transfection. On day two, each dish was transfected with 48 ug DNA and 144 ul Lipofectamine 2000 (Invitrogen, cat. #11668-019). The DNA was comprised of a mixture (per 10 cm dish) containing 3 ug AAK1/HA/pIRES (full length human, NCBI accession no. NP_055726.2), 45 μg Flag/AP2MI/pcDNA (full length human), and 1.5 ml OPTI-MEM. The Lipofectamine 2000 is made up of a mixture (per 10 cm dish) containing 144 μl Lipofectamine 2000 and 1.5 ml OPTI-MEM. Each mixture was transferred to individual 15 ml tubes and incubated at RT for 5 minutes, and then the two mixes were combined and incubated at RT for 20 minutes.
Growth media was then aspirated from each 10 cm plate and replaced with 10 ml of DMEM+10% FBS (no GPS). Finally, 3 ml DNA/Lipofectamine mix was added to each 10 cm dish and mix gently followed by incubate of plate overnight at 37° C. and 5% CO2.
On day three, compounds were diluted in 100% DMSO at 1000× final concentration, followed by 3-fold serial dilutions for a total of 5 concentrations tested. Four compounds were tested per 10 cm dish. One ul of each compound dilution was then pipetted into a deep-well, 96-well plate, followed by addition of 500 μl DMEM+0.5% FBS into each well for a 2× final concentration of each compound. Cells were resuspended in a 10 cm dish by simple pipetting (HEK293 cells come off the plate that easy at this point) and then transferred to a 50 ml conical tube and pelleted by centrifugation at 1000 rpm for 5 min. Cell pellets were then resuspended in 2.75 ml DMEM+0.5% FBS per 10 cm dish and 100 μl of cell suspension transferred into each well of 96-well TC plate. Finally, 100 μl of 2× compound diluted in DMEM+0.5% FBS was then added into wells containing cell suspension for a 1× final concentration. Plates were then incubated at 37° C. and 5% CO2 for 3 hours followed by transferring of cell suspensions from each well into 12-tube PCR strips. The PCR strips were spun in a tip rack at 1000 rpm for 5 minutes to pellet cells and media was then removed by pipetting without disturbing the cell pellet.
To prepare for Western Blot analysis, cell pellets were resuspend in 40 ul 1× LDS-PAGE sample buffer (Invitrogen, cat.# NP0008)+2× Halt phophatase and protease inhibitor cocktail (Thermo Scientific, cat. #1861284), followed by sonicating each with microtip sonicator set at 5 for 8-10 seconds. Five ul of 10× NuPage Sample Reducing Agent (with 50 mM DTT) was to each sample followed by heat denaturing at 70 C for 10 min on PCR machine. A total of 10 μl per sample was loaded into each lane of a 4-20% Tris-Glycine Criterion 26-well gel (Biorad, cat. #345-0034) for the phospho-mu2 blot and 10 μl per lane in a 4-12% Bis-Tris (+MES buffer) NuPAGE 26-well gel (Invitrogen, cat.# WG1403BX10) for the mu2 blot. For controls, 2 ng of phospho-mu2 or 20 ng mu2/Flag proteins were loaded in the last well of each gel. After SDS-PAGE, samples on each gel were transferred to PVDF membrane using an iBlot and membranes were blocked for one hour in TBST+5% milk, followed by wash 3× for 5-10 min with TBST. Criterion gels were probed with rabbit anti-phospho-mu2 (1:5000; a rabbit polyclonal antibody produced by New England Peptide and affinity purified at Lexicon) in TBST+5% BSA, whereas, NuPAGE gels were probed with mouse anti-Flag (1:500; Sigma, cat.# F1804) in TBST+5% milk, and these primary antibodies were incubated overnight at 4° C. on a rocker.
A general note: Immunoblotting shows a protein as a band on a membrane.

T1 sequence (Q2M2I8 1-863 isoform Q2M2I8-2): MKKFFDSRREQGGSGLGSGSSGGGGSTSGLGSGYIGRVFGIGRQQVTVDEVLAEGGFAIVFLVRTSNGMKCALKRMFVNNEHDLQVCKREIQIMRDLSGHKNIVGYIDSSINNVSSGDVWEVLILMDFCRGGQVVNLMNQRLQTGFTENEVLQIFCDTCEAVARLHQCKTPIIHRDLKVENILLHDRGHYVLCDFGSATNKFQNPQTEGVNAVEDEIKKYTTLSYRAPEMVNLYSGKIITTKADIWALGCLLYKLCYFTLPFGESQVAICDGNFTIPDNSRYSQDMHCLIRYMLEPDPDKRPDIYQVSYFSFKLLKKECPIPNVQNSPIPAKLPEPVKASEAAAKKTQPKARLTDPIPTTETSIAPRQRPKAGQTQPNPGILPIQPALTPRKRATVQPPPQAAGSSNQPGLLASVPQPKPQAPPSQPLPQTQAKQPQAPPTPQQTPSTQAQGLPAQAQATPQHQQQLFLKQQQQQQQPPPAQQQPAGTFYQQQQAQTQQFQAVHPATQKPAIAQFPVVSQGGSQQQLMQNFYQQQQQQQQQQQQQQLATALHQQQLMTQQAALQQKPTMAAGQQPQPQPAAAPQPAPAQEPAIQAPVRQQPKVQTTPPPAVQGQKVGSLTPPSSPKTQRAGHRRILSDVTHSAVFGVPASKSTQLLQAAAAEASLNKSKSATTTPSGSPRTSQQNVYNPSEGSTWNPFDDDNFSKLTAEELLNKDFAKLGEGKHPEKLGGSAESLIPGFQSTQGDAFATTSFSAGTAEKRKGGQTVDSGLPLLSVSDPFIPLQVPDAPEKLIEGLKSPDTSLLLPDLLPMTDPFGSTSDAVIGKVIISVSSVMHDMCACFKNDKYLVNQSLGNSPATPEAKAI

With `COc1ncccc1-c1cnn2ccc(N3CCN(C(=O)OC(C)(C)C)CC3)nc12` [tert-butyl 4-(3-(2-methoxypyridin-3-yl)pyrazolo[1,5-a]pyrimidin-5-yl)piperazine-1-carboxylate], the IC50 at AAK1 [1] and on AAK1 [2] was not above 10 nM throughout.

Turning to `COc1ccc(F)cc1-c1cnn2ccc(N3CC[C@H](N(C)C(=O)OC(C)C)C3)nc12` [(S)-isopropyl (1-(3-(5-fluoro-2-methoxyphenyl)pyrazolo[1,5-a]pyrimidin-5-yl)pyrrolidin-3-yl)(methyl)carbamate], the IC50 was not above 10 nM against AAK1 [1] and not above 100 nM against AAK1 [2].

Turning to `COc1ncccc1-c1cnn2ccc(N(C)CCCN(C)C(=O)OC(C)C)nc12` [isopropyl (3-((3-(2-methoxypyridin-3-yl)pyrazolo[1,5-a]pyrimidin-5-yl)(methyl)amino)propyl)(methyl)carbamate], the IC50 is not above 10 nM at AAK1 [1] and not above 100 nM on AAK1 [2].

With `COc1ccc(F)cc1-c1cnn2ccc(N3CCN(C(=O)OC(C)C)CC3)nc12` [isopropyl 4-(3-(5-fluoro-2-methoxyphenyl)pyrazolo[1,5-a]pyrimidin-5-yl)piperazine-1-carboxylate], the IC50 against AAK1 [1] and against AAK1 [2] was not above 10 nM each time.

On to `CC(C)OC(=O)N1CCN(c2ccn3ncc(-c4ccc(CN)cc4)c3n2)CC1` [isopropyl 4-(3-(4-(aminomethyl)phenyl)pyrazolo[1,5-a]pyrimidin-5-yl)piperazine-1-carboxylate], for which the half-maximal inhibitory concentration (IC50) on AAK1 [1] and at AAK1 [2] was not above 10 nM throughout.

As to `COc1ncccc1-c1cnn2ccc(N3CC[C@H](N(C)C(=O)[C@@H](N)CC(C)C)C3)nc12` [(S)-2-amino-N-((S)-1-(3-(2-methoxypyridin-3-yl)pyrazolo[1,5-a]pyrimidin-5-yl)pyrrolidin-3-yl)-N,4-dimethylpentanamide], the IC50 against AAK1 [1] and at AAK1 [2] was not above 10 nM each time.

For `COc1cccc(-c2cnn3ccc(N4CCN(C(=O)OC(C)C)CC4)nc23)n1` [isopropyl 4-(3-(6-methoxypyridin-2-yl)pyrazolo[1,5-a]pyrimidin-5-yl)piperazine-1-carboxylate], the IC50 against AAK1 [1] is not above 10 nM; against AAK1 [2] it was not above 100 nM.

For `COc1ncccc1-c1cnn2ccc(N3CCN(C(=O)[C@@H]4CCCN4)CC3)nc12` [(S)-(4-(3-(2-methoxypyridin-3-yl)pyrazolo[1,5-a]pyrimidin-5-yl)piperazin-1-yl)(pyrrolidin-2-yl)methanone], the IC50 is not above 10 nM against AAK1 [1] and not above 100 nM against AAK1 [2].

In the case of `COCCOC(=O)N1CCN(c2ccn3ncc(-c4ccc(C)nc4OC)c3n2)CC1` [2-methoxyethyl 4-(3-(2-methoxy-6-methylpyridin-3-yl)pyrazolo[1,5-a]pyrimidin-5-yl)piperazine-1-carboxylate], the IC50 was not above 10 nM at AAK1 [1] and not above 100 nM against AAK1 [2].

On to `COC[C@H](C)OC(=O)N1CCN(c2ccn3ncc(-c4cccnc4OC)c3n2)CC1` [(S)-1-methoxypropan-2-yl 4-(3-(2-methoxypyridin-3-yl)pyrazolo[1,5-a]pyrimidin-5-yl)piperazine-1-carboxylate], for which the IC50 against AAK1 [1] and on AAK1 [2] was not above 10 nM throughout.

As for `CCOC(=O)N1CCN(c2ccn3ncc(-c4cc(C)cnc4OC)c3n2)CC1` [ethyl 4-(3-(2-methoxy-5-methylpyridin-3-yl)pyrazolo[1,5-a]pyrimidin-5-yl)piperazine-1-carboxylate], the IC50 is not above 10 nM against AAK1 [1] and not above 100 nM against AAK1 [2].

In the case of `COc1ncc(F)cc1-c1cnn2ccc(N3CCN(C(=O)OC(C)(C)C)CC3)nc12` [tert-butyl 4-(3-(5-fluoro-2-methoxypyridin-3-yl)pyrazolo[1,5-a]pyrimidin-5-yl)piperazine-1-carboxylate], the figures for the IC50 at AAK1 [1] and against AAK1 [2] were not above 10 nM and not above 100 nM, respectively.

On to `COc1nc(C)ccc1-c1cnn2ccc(N(C)CCCN(C)C(=O)OC(C)C)nc12` [isopropyl (3-((3-(2-methoxy-6-methylpyridin-3-yl)pyrazolo[1,5-a]pyrimidin-5-yl)(methyl)amino)propyl)(methyl)carbamate], for which the IC50 against AAK1 [1] was not above 10 nM; against AAK1 [2] it was not above 100 nM.

As to `COc1ccc(F)cc1-c1cnn2ccc(N3CCN(C(=O)[C@@H](N)CC(C)C)CC3)nc12` [(S)-2-amino-1-(4-(3-(5-fluoro-2-methoxyphenyl)pyrazolo[1,5-a]pyrimidin-5-yl)piperazin-1-yl)-4-methylpentan-1-one], the IC50 on AAK1 [1] and against AAK1 [2] was not above 10 nM throughout.

As for `COc1ncccc1-c1cnn2ccc(N3CCN(C(=O)O[C@H]4CCOC4)CC3)nc12` [(S)-tetrahydrofuran-3-yl 4-(3-(2-methoxypyridin-3-yl)pyrazolo[1,5-a]pyrimidin-5-yl)piperazine-1-carboxylate], the IC50 against AAK1 [1] and at AAK1 [2] was not above 10 nM throughout.

Consider `CCOc1ncccc1-c1cnn2ccc(N3CCN(C(=O)OC(C)(C)C)CC3)nc12` [tert-butyl 4-(3-(2-ethoxypyridin-3-yl)pyrazolo[1,5-a]pyrimidin-5-yl)piperazine-1-carboxylate], for which the IC50 on AAK1 [1] and against AAK1 [2] was not above 10 nM throughout.

For `COc1ccc(F)cc1-c1cnn2ccc(N3CCN(C(=O)O[C@@H]4CCOC4)CC3)nc12` [(R)-tetrahydrofuran-3-yl 4-(3-(5-fluoro-2-methoxyphenyl)pyrazolo[1,5-a]pyrimidin-5-yl)piperazine-1-carboxylate], the IC50 on AAK1 [1] and on AAK1 [2] was not above 10 nM throughout.

For the molecule `CCOC(=O)N1CCN(c2ccn3ncc(-c4ccc(C)nc4OC)c3n2)CC1` [ethyl 4-(3-(2-methoxy-6-methylpyridin-3-yl)pyrazolo[1,5-a]pyrimidin-5-yl)piperazine-1-carboxylate], the values for the IC50 against AAK1 [1] and against AAK1 [2] were not above 10 nM and not above 100 nM, respectively.

Turning to `CC(C)[C@H](N)C(=O)N1CCN(c2ccn3ncc(-c4cccc(F)c4)c3n2)CC1` [(S)-2-amino-1-(4-(3-(3-fluorophenyl)pyrazolo[1,5-a]pyrimidin-5-yl)piperazin-1-yl)-3-methylbutan-1-one], the half-inhibitory concentration (IC50) on AAK1 [1] and against AAK1 [2] was not above 10 nM throughout.

As for `COc1cc(C)ccc1-c1cnn2ccc(N3CCN(C(=O)OC(C)C)CC3)nc12` [isopropyl 4-(3-(2-methoxy-4-methylphenyl)pyrazolo[1,5-a]pyrimidin-5-yl)piperazine-1-carboxylate], the IC50 against AAK1 [1] is not above 10 nM; on AAK1 [2], not above 100 nM.

On to `COc1ncccc1-c1cnn2ccc(N3CCN(C(=O)[C@@H](N)CC(C)C)CC3)nc12` [(S)-2-amino-1-(4-(3-(2-methoxypyridin-3-yl)pyrazolo[1,5-a]pyrimidin-5-yl)piperazin-1-yl)-4-methylpentan-1-one], for which the IC50 against AAK1 [1] and at AAK1 [2] was not above 10 nM throughout.

Molecule `CC(C)COC(=O)N(C)CCNc1ccn2ncc(-c3ccc(C(N)=O)cc3)c2n1` [isobutyl (2-((3-(4-carbamoylphenyl)pyrazolo[1,5-a]pyrimidin-5-yl)amino)ethyl)(methyl)carbamate] came in with a 50% inhibitory concentration (IC50) at AAK1 [2] not above 10 nM.

One may read the IC50 as the concentration that gives 50% inhibition. High values mean weaker potency, low ones greater potency.
